# Experimental data: patent US4977180A, “Novel prolinal derivatives” (Ono Pharmaceutical Co., Ltd., priority 1987, dated 1990)
# Where a SMILES comes first, the peptide text is derived from it. [ ]: non-standard residue; d: D form. The star is where a group is joined. ξ: configuration not given here. Cbz = O=C(OCc1ccccc1)*; ξP = O=C(O)C1CCCN1; CH2Cl = ClC*
# Molecular target: T1, prolyl endopeptidase (Bos taurus, UniProt Q9XTA2)
# T1 construct: prolyl endopeptidase which was purified from bovine brain; from tissue; host or cells: bovine brain
# T1 sequence (Q9XTA2 whole entry): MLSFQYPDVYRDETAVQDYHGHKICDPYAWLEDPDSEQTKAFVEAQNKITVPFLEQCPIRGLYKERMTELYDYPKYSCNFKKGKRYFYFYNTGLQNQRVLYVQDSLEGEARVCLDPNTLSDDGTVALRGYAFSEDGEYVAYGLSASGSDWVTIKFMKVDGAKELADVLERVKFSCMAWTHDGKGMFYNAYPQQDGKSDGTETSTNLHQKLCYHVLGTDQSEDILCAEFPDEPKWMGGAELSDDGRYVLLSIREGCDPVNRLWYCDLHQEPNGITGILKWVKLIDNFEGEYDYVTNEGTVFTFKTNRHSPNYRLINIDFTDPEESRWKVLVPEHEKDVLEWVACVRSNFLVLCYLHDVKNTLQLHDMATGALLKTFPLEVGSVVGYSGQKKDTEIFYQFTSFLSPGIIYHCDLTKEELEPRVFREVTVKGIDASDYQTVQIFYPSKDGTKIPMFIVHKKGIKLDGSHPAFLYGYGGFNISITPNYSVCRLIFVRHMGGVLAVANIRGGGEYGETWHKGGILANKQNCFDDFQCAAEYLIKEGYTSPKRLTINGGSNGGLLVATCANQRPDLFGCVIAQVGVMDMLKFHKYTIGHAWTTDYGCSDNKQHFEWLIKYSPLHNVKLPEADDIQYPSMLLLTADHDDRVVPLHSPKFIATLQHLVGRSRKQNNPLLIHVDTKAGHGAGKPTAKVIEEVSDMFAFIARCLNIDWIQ
# Assay: Prolyl endopeptidase inhibitory activity in vitro
# Assay type: biochemical
# Settings: prolyl endopeptidase purified from bovine brain, pH 7.5, 37° C., substrate N-benzyloxycarbonyl-glycyl-prolyl-p-nitroanilide, 30 mins' incubation, read-out: Concentration for 50% inhibition IC50
# Experimental: Inhibitory activity of prolyl endopeptidase in vitro was measured by the following test system.
# A mixed solution of 20 mM tris-HCl buffer (pH 7.5; 935 μl; containing 10 mM EDTA and 10 mM mercaptoethanol), a solution of a compound of the present invention in DMSO (10 μl) and a solution of prolyl endopeptidase which was purified from bovine brain (0.13 unit; prepared by the method described in J. Biochem., 94, 1179 (1983)) in tris-HCl buffer (15 μl) was preincubated for 15 mins at 37° C.
# To the solution, 5 mM of N-benzyloxycarbonyl-glycyl-prolyl-p-nitroanilide (40 μl) in a mixture of 40% dioxane-60% water was added. The solution was incubated for 1 min at the same temperature.
# Optical absorption (a1) at 405 nm of the solution, and optical absorption (a2) at 405 nm of the solution after 30 mins' further incubation at 37° C. were measured.
# Optical absorptions (b1 and b2) of the solutions using DMSO instead of the solution of the compound of the present invention were also measured.
# Inhibitory ratio was calculated by the following expression and IC50 (required concentration for 50% inhibition) was obtained (See Protein, Nucleic acid and Enzyme 25(6), 513, 1980.). [formula]
row,SMILES,IC50 [nM]
1,"O=C[C@@H]1CCCN1C(=O)[C@@H]1CCC[C@H]1C(=O)CCc1ccccc1 (mixture of isomers) [1 (b), N-[trans-2-(3-phenylpropanoyl)cyclopentanecarbonyl]-L-prolinal]",14
2,"O=C[C@@H]1CCCN1C(=O)[C@@H]1CCCC[C@H]1C(=O)CCc1ccccc1 (mixture of isomers) [1 (c), N-[trans-2-(3-phenylpropanoyl)cyclohexanecarbonyl]-L-prolinal]",24
3,"O=C[C@@H]1CCCN1C(=O)CCC(=O)CCc1ccccc1 [1 (a), N-(6-phenyl-4-oxohexanoyl) L-prolinal]",120
4,"CC(C)C(C(=O)CCCCc1ccccc1)C(=O)N1CCC[C@H]1C=O (stereo partly drawn) [1 (d), N-(2RS-isopropyl-3-oxo-7-phenylheptanoyl)-L-prolinal]",150
5,"O=C[C@@H]1CCCN1C(=O)CCC(=O)CCc1cccc(Cl)c1 [1 (e), N-[6-(3-chlorophenyl)-4-oxohexanoyl]-L-prolinal]",50
6,"O=C[C@@H]1CCCN1C(=O)CCC(=O)CCCCc1ccccc1 [1 (f), N-(4-oxo-8-phenyloctanoyl)-L-prolinal]",62
7,"COc1ccc(CCC(=O)CCC(=O)N2CCC[C@H]2C=O)cc1 [1 (g), N-[6-(4-methoxyphenyl)-4-oxohexanoyl]-L-prolinal]",84
8,"O=C[C@@H]1CCCN1C(=O)CCC(=O)CCc1ccc(Cl)cc1 [1 (h), N-[6-(4-chlorophenyl)-4-oxohexanoyl]-L-prolinal]",29
9,"Cc1ccc(CCC(=O)CCC(=O)N2CCC[C@H]2C=O)cc1 [1 (i), N-[6-(4-methylphenyl)-4-oxohexanoyl]-L-prolinal]",11
10,"O=C[C@@H]1CCCN1C(=O)CCC(=O)CCCc1ccccc1[N+](=O)[O-] [1 (j), N-[7-(2-nitrophenyl)-4-oxoheptanoyl]-L-prolinal]",32
11,"O=C[C@@H]1CCCN1C(=O)CCC(=O)CCc1cccc2ccccc12 [1 (k), N-[6-(1-naphthyl)-4-oxohexanoyl]-L-prolinal]",18
12,"O=C[C@@H]1CCCN1C(=O)CCC(=O)CCc1ccc2ccccc2c1 [1 (l), N-[6-(2-naphthyl)-4-oxohexanoyl]-L-prolinal]",39
13,"O=C[C@@H]1CCCN1C(=O)CCC(=O)CCc1ccc(C(F)(F)F)cc1 [1 (m), N-[4-oxo-6-(p-trifluoro-methylphenyl)hexanoyl]-L-prolinal]",15
14,"O=C[C@@H]1CCCN1C(=O)CCC(=O)CCCc1ccccc1 [Example 1, N-(7-phenyl-4-oxoheptanoyl)-L-prolinal]",27

# Tested on: prolyl endopeptidase
# Assay: not given
# Settings: in words; J. Neurochem., 41, 69 (1983); cited from earlier work
row,SMILES,inhibits prolyl endopeptidase
1,O=CC1CCCN1C(=O)[C@@H]1CCCN1C(=O)OCc1ccccc1 (stereo partly drawn) [N-benzyloxycarbonyl-L-propyl-prolinal] (Cbz-Pro-[ξP]-aldehyde),strongly inhibits prolyl endopeptidase
2,O=C(NCC(=O)N1CCC[C@H]1C(=O)CCl)OCc1ccccc1 [N-benzyloxycarbonyl-glycyl-L-prolyl-chloromethane] (Cbz-Gly-Pro-CH2Cl),strongly inhibits prolyl endopeptidase
